Data as given in patent publication US10947252B2, “Inhibitors of KEAP1-Nrf2 protein-protein interaction” (Janssen Pharmaceutica NV, priority 2018, dated 2021).

Experiments:
[1] = target: Kelch domain of human KEAP1 (321-624 aa) (Homo sapiens (Human), UniProt Q14145); experiment: KEAP1 KELCH ThermoFluor binding assay; conditions: KEAP Kelch […], 1,8-ANS, pH 7.0, average of results obtained, read-out: Tf Kd;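 note: Ligand-induced melting temperature shift of E. coli-expressed KEAP1 Kelch protein, Kd estimated from concentration-response curves of ΔTm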
Chain of Kelch domain of human KEAP1 (321-624 aa) (Q14145 321-624): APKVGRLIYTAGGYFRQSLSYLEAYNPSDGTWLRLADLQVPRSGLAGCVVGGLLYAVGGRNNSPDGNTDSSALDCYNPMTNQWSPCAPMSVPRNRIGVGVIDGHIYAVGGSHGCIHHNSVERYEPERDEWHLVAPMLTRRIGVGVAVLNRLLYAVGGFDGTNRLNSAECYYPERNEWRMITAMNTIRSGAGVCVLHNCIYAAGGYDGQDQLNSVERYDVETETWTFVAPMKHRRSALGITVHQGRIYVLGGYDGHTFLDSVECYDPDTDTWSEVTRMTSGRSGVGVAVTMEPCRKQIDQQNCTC

[2] = test system: Glo-Response ARE-luc2P HEK293 cell line; experiment: ARE luciferase reporter cell-based assay; conditions: Homo sapiens, HEK293, 24 h, average of results obtained;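 note: luciferase signal tracks Nrf2 activation of the ARE once compounds disrupt KEAP1-Nrf2 binding, read with One-Glo reagent, DMSO serving as low control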
Experimental: The ARE assay utilizes a luciferase reporter cell line where the signal is proportional to NrF2 activation of the ARE. The cell line is commercially available from Promega and was prepared by stably transfecting HEK293 cells with a vector (pGL4.11) which contains the ARE response element upstream of a minimal promoter. The promoter drives expression of luc2 firefly luciferase gene. Upon disruption of KEAP1-Nrf2 binding by compound, Nrf2 translocates into the nucleus where it binds to the ARE and activates transcription of luciferase.
The materials used in this ARE assay are as follows: Glo-Response ARE-luc2P HEK293 cell line and One-Glo Luciferase Assay System were purchased from Promega (Madison, Wis.). Dulbecco's Modified Eagle medium ((DMEM), low glucose, GlutaMAX, pyruvate), fetal bovine serum (certified, heat inactivated), hygromycin B, Dulbecco's phosphate-buffered saline were purchased from Life Technologies (Grand Island, N.Y.). Penicillin, streptomycin solution (100×) and 0.05% trypsin-EDTA were purchased from Corning (Manassas, Va.). DMSO was purchased from EMD Millipore.
The ARE assay protocol is as follows: cells were maintained in growth medium (DMEM+10% FBS, 200 μg/mL hygromycin B, p-s) between 20-90% confluency by splitting twice per week. One day before the assay, cells were trypsinized, counted to determine viable cell count, and re-suspended in assay medium (DMEM+10% FBS, p-s) at 250,000 cells/mL. […] 100% DMSO was used as the low control. A 11-point dose series of the control compound was included on every plate. Compounds were spotted to an intermediate plate (Greiner #781280 V-bottom 384 well plate) using the Echo acoustic dispenser (Labscyte San Jose, Calif.). Spot size was 240 nL.
On the day of the assay, 60 mL per well of assay medium was added to the pre-spotted plate to make 2× compound stocks using the Combi (Thermo Waltham, Mass.). Compound and medium were mixed on the Janus and 20 mL of 2×compound stock was added to the cell plate which already contained 20 mL of assay medium from cell plating. […] The plates were returned to the tissue culture incubator for 24 hours.
The next day, luciferase activity was measured according to the manufacturer's protocol for One-Glo luciferase reagent. The plates were removed from the incubator and allowed to equilibrate to room temperature for 30 min. Forty microliters of One-Glo reagent (equilibrated to room temperature) was added per well using the Combi. The plates were mixed on an orbital shaker for 3 min. Luminescence was read on the BMG Pherastar multiplate reader (Cary, N.C.) using the luminescence protocol (1 sec interval).
The dose-response data were analyzed in Genedata Screener using 4PL nonlinear regression model. Raw luminescence counts as well as normalized values were used for data analysis.

Kd [1] | SMILES | EC50 [2]
1.72 µM | Cc1cnc2c(c1)S(=O)(=O)N(Cc1cc([C@H](c3ccn4c(C(F)F)nnc4c3C)C(C)(C)C(=O)O)ncc1C)CC1(CC1)O2 (single isomer, unassigned) [Example 333, (*R)-3-(3-(difluoromethyl)-8-methyl-[1,2,4]triazolo[4,3-a]pyridin-7-yl)-2,2-dimethyl-3-(5-methyl-4-((8′-methyl-1′,1′-dioxidospiro[cyclopropane-1,4′-pyrido[2,3-b][1,4,5]oxathiazepin]-2′(3′H)-yl)methyl)pyridin-2-yl)propanoic Acid] | 3.98 µM
< 0.001 µM | Cc1cnc2c(c1)S(=O)(=O)N(Cc1nc([C@@H](c3ccn4c(C(F)F)nnc4c3C)C(C)(C)C(=O)O)ccc1C)CC1(CC1)O2 (single isomer, unassigned) [Example 334, (*S)-3-(3-(Difluoromethyl)-8-methyl-[1,2,4]triazolo[4,3-a]pyridin-7-yl)-2,2-dimethyl-3-(5-methyl-6-((8′-methyl-1′,1′-dioxidospiro[cyclopropane-1,4′-pyrido[2,3-b][1,4,5]oxathiazepin]-2′(3′H)-yl)methyl)pyridin-2-yl)propanoic Acid] | 0.0052 µM
2.44 µM | Cc1cnc2c(c1)S(=O)(=O)N(Cc1nc([C@H](c3ccn4c(C(F)F)nnc4c3C)C(C)(C)C(=O)O)ccc1C)CC1(CC1)O2 (single isomer, unassigned) [Example 335, (*R)-3-(3-(Difluoromethyl)-8-methyl-[1,2,4]triazolo[4,3-a]pyridin-7-yl)-2,2-dimethyl-3-(5-methyl-6-((8′-methyl-1′,1′-dioxidospiro[cyclopropane-1,4′-pyrido[2,3-b][1,4,5]oxathiazepin]-2′(3′H)-yl)methyl)pyridin-2-yl)propanoic Acid] | 4.62 µM
> 10 µM | Cc1ccc([C@H](c2ccn3c(C(F)(F)F)nnc3c2C)C(C)(C)C(=O)O)cc1CN1CC2(CCNCC2)Oc2ncccc2S1(=O)=O (single isomer, unassigned) [Example 337, (*R)-3-(3-((1′,1′-Dioxidospiro[piperidine-4,4′-pyrido[2,3-b][1,4,5]oxathiazepin]-2′(3′H)-yl)methyl)-4-methylphenyl)-2,2-dimethyl-3-(8-methyl-3-(trifluoromethyl)-[1,2,4]triazolo[4,3-a]pyridin-7-yl)propanoic Acid] | > 0.02 µM
< 0.001 µM | Cc1ccc([C@@H](c2ccn3c(C(F)(F)F)nnc3c2C)C(C)(C)C(=O)O)cc1CN1CC2(CNC2)Oc2ncccc2S1(=O)=O (single isomer, unassigned) [Example 338, (*S)-3-(3-((1′,1′-Dioxidospiro[azetidine-3,4′-pyrido[2,3-b][1,4,5]oxathiazepin]-2′(3′H)-yl)methyl)-4-methylphenyl)-2,2-dimethyl-3-(8-methyl-3-(trifluoromethyl)-[1,2,4]triazolo[4,3-a]pyridin-7-yl)propanoic Acid] | 0.0131 µM
80.2 µM | Cc1ccc([C@H](c2ccn3c(C(F)(F)F)nnc3c2C)C(C)(C)C(=O)O)cc1CN1CC2(CNC2)Oc2ncccc2S1(=O)=O (single isomer, unassigned) [Example 339, (*R)-3-(3-((1′,1′-Dioxidospiro[azetidine-3,4′-pyrido[2,3-b][1,4,5]oxathiazepin]-2′(3′H)-yl)methyl)-4-methylphenyl)-2,2-dimethyl-3-(8-methyl-3-(trifluoromethyl)-[1,2,4]triazolo[4,3-a]pyridin-7-yl)propanoic Acid] | 6.32 µM
0.00124 µM | Cc1cnc2c(c1)S(=O)(=O)N(Cc1cc([C@@H](c3ccn4c(C(F)(F)F)nnc4c3C)C(C)(C)C(=O)O)ccc1C)CC1(CCNCC1)O2 (single isomer, unassigned) [Example 340, (*S)-2,2-Dimethyl-3-(4-methyl-3-((8′-methyl-1′,1′-dioxidospiro[piperidine-4,4′-pyrido[2,3-b][1,4,5]oxathiazepin]-2′(3′H)-yl)methyl)phenyl)-3-(8-methyl-3-(trifluoromethyl)-[1,2,4]triazolo[4,3-a]pyridin-7-yl)propanoic Acid] | 0.629 µM
18.8 µM | Cc1cnc2c(c1)S(=O)(=O)N(Cc1cc([C@H](c3ccn4c(C(F)(F)F)nnc4c3C)C(C)(C)C(=O)O)ccc1C)CC1(CCNCC1)O2 (single isomer, unassigned) [Example 341, (*R)-2,2-Dimethyl-3-(4-methyl-3-((8′-methyl-1′,1′-dioxidospiro[piperidine-4,4′-pyrido[2,3-b][1,4,5]oxathiazepin]-2′(3′H)-yl)methyl)phenyl)-3-(8-methyl-3-(trifluoromethyl)-[1,2,4]triazolo[4,3-a]pyridin-7-yl)propanoic Acid] | > 0.02 µM
< 0.001 µM | Cc1cnc2c(c1)S(=O)(=O)N(Cc1cc([C@@H](c3ccn4c(C(F)(F)F)nnc4c3C)C(C)(C)C(=O)O)ccc1C)CC1(CNC1)O2 (single isomer, unassigned) [Example 342, (*S)-2,2-Dimethyl-3-(4-methyl-3-((8′-methyl-1′,1′-dioxidospiro[azetidine-3,4′-pyrido[2,3-b][1,4,5]oxathiazepin]-2′(3′H)-yl)methyl)phenyl)-3-(8-methyl-3-(trifluoromethyl)-[1,2,4]triazolo[4,3-a]pyridin-7-yl)propanoic Acid] | 0.0056 µM
32.2 µM | Cc1cnc2c(c1)S(=O)(=O)N(Cc1cc([C@H](c3ccn4c(C(F)(F)F)nnc4c3C)C(C)(C)C(=O)O)ccc1C)CC1(CNC1)O2 (single isomer, unassigned) [Example 343, (*R)-2,2-Dimethyl-3-(4-methyl-3-((8′-methyl-1′,1′-dioxidospiro[azetidine-3,4′-pyrido[2,3-b][1,4,5]oxathiazepin]-2′(3′H)-yl)methyl)phenyl)-3-(8-methyl-3-(trifluoromethyl)-[1,2,4]triazolo[4,3-a]pyridin-7-yl)propanoic Acid] | 1.57 µM
< 0.001 µM | Cc1ccc([C@@H](c2ccn3c(C(F)F)nnc3c2C)C(C)(C)C(=O)O)nc1CN1CC2(CCOCC2)Oc2nc(OCCN3CCCCC3)c(C)cc2S1(=O)=O (single isomer, unassigned) [Example 354, (*S)-3-(3-(Difluoromethyl)-8-methyl-[1,2,4]triazolo[4,3-a]pyridin-7-yl)-2,2-dimethyl-3-(5-methyl-6-((8′-methyl-1′,1′-dioxido-7′-(2-(piperidin-1-yl)ethoxy)-2,3,5,6-tetrahydrospiro[pyran-4,4′-pyrido[2,3-b][1,4,5]oxathiazepin]-2′(3′H)-yl)methyl)pyridin-2-yl)propanoic Acid] | 0.0206 µM
3.07 µM | Cc1ccc([C@H](c2ccn3c(C(F)F)nnc3c2C)C(C)(C)C(=O)O)nc1CN1CC2(CCOCC2)Oc2nc(OCCN3CCCCC3)c(C)cc2S1(=O)=O (single isomer, unassigned) [Example 355, (*R)-3-(3-(Difluoromethyl)-8-methyl-[1,2,4]triazolo[4,3-a]pyridin-7-yl)-2,2-dimethyl-3-(5-methyl-6-((8′-methyl-1′,1′-dioxido-7′-(2-(piperidin-1-yl)ethoxy)-2,3,5,6-tetrahydrospiro[pyran-4,4′-pyrido[2,3-b][1,4,5]oxathiazepin]-2′(3′H)-yl)methyl)pyridin-2-yl)propanoic Acid] | 1.14 µM
3.55 µM | Cc1ccc([C@@H](c2ccn3c(C(F)F)nnc3c2C)C(C)(C)C(=O)O)nc1CN1CC2(CC2)Oc2nc(OCCN3CCCCC3)c(C)cc2S1(=O)=O (single isomer, unassigned) [Example 356, (*S)-3-(3-(Difluoromethyl)-8-methyl-[1,2,4]triazolo[4,3-a]pyridin-7-yl)-2,2-dimethyl-3-(5-methyl-6-((8′-methyl-1′,1′-dioxido-7′-(2-(piperidin-1-yl)ethoxy)spiro[cyclopropane-1,4′-pyrido[2,3-b][1,4,5]oxathiazepin]-2′(3′H)-yl)methyl)pyridin-2-yl)propanoic Acid] | 0.0118 µM
< 0.001 µM | Cc1ccc([C@H](c2ccn3c(C(F)F)nnc3c2C)C(C)(C)C(=O)O)nc1CN1CC2(CC2)Oc2nc(OCCN3CCCCC3)c(C)cc2S1(=O)=O (single isomer, unassigned) [Example 357, (*R)-3-(3-(difluoromethyl)-8-methyl-[1,2,4]triazolo[4,3-a]pyridin-7-yl)-2,2-dimethyl-3-(5-methyl-6-((8′-methyl-1′,1′-dioxido-7′-(2-(piperidin-1-yl)ethoxy)spiro[cyclopropane-1,4′-pyrido[2,3-b][1,4,5]oxathiazepin]-2′(3′H)-yl)methyl)pyridin-2-yl)propanoic Acid] | 0.452 µM
4.46 µM | Cc1ccc([C@@H](c2ccn3c(C(F)F)nnc3c2C)C(C)(C)C(=O)O)nc1CN1CC2(CC2)Oc2nc(OCCN3CCCC3)c(C)cc2S1(=O)=O (single isomer, unassigned) [Example 358, (*S)-3-(3-(Difluoromethyl)-8-methyl-[1,2,4]triazolo[4,3-a]pyridin-7-yl)-2,2-dimethyl-3-(5-methyl-6-((8′-methyl-1′,1′-dioxido-7′-(2-(pyrrolidin-1-yl)ethoxy)spiro[cyclopropane-1,4′-pyrido[2,3-b][1,4,5]oxathiazepin]-2′(3′H)-yl)methyl)pyridin-2-yl)propanoic Acid] | 0.0233 µM
< 0.001 µM | Cc1ccc([C@H](c2ccn3c(C(F)F)nnc3c2C)C(C)(C)C(=O)O)nc1CN1CC2(CC2)Oc2nc(OCCN3CCCC3)c(C)cc2S1(=O)=O (single isomer, unassigned) [Example 359, (*R)-3-(3-(Difluoromethyl)-8-methyl-[1,2,4]triazolo[4,3-a]pyridin-7-yl)-2,2-dimethyl-3-(5-methyl-6-((8′-methyl-1′,1′-dioxido-7′-(2-(pyrrolidin-1-yl)ethoxy)spiro[cyclopropane-1,4′-pyrido[2,3-b][[,4,5]oxathiazepin]-2′(3′H)-yl)methyl)pyridin-2-yl)propanoic Acid] | 1.23 µM
